From US7893199B2, “Peptides having neutrophil-stimulating activity” (National University Corporation Gunma University, priority 2006, dated 2011)
Where no end group is shown, it is not given here.

Tests used:
[1] = biological target: T1, heat shock 70 kDa protein 8 isoform 1 (SEQ ID NO: 52) (Homo sapiens, UniProt P11142); experiment: chemical crosslinking experiment, streptavidin beads, electrophoresis (receptor identification); assay type: binding; conditions: differentiated HL-60 cells
T1 construct: endogenous in cells; host or cells: neutrophil-like differentiated HL-60 cells
Method: Then, in order to identify directly the receptor molecules to which these functional peptides are bound, the following chemical crosslinking experiment was performed. That is, the HL-60 cells differentiated into the neutrophil-like cells were suspended in HBHS (not containing 0.1% BSA). The suspension was centrifuged (1,000 rpm, 5 minutes, 4° C.) and the supernatant was removed. The cells were suspended again in the HBHS not containing BSA so as to have the cell density of 5.6×10^6 cells/ml. The obtained cell suspension was preincubated at 37° C. for 10 minutes at first, and 1/10 volume of mitocryptide-3 and -5, [Cys^0]mitocryptide-3, [Cys^0]mitocryptide-5, [Cys^24]mitocryptide-3, and peptides obtained by introducing biotin into the N terminals thereof (N-biotinyl-mitocryptide-3, N-biotinyl-mitocryptide-5, N-biotinyl-[Cys^0]mitocryptide-3, N-biotinyl-[Cys^0]mitocryptide-5, and N-biotinyl-[Cys^24]mitocryptide-3) were added to have the final concentration of 10 μM, followed by incubation at 37° C. for 30 minutes. After that, the cell suspension was centrifuged (5,000 rpm, 4° C., 1 minute) and the supernatant was removed. The resultant cells were resuspended in HBHS not containing BSA and centrifuged again to wash the cells. 1 ml of a buffer for dissolving cells (100 mM NaCl, 20 mM Tris-HCl, 1 mM EDTA, 77.5 mTIU/ml aprotinin, 1 μM leupeptin, 1 μg/ml pepstatin A, 1 μg/ml phosphoramidone, 1% CHAPS, pH 7.5) with respect to 1 ml of the original cell suspension was added to the cell precipitate, and the mixture was incubated at 4° C. for 30 minutes to dissolve the cells, thereby a cell lysate was prepared. The cell lysate was centrifuged (15,000 rpm, 4° C., 15 minutes) and the supernatant was centrifuged again in the same condition. The obtained supernatant was incubated with streptavidin beads at 4° C. for 30 minutes, then, the beads were washed by centrifugation with the buffer for dissolving cells three times. Further, the beads were treated by heat at 100° C. for 10 minutes in the buffer for dissolving cells, and the mixture was centrifuged. The obtained supernatant was subjected to an SDS gel electrophoresis to separate the contained protein. Then, the gel was stained by silver stain method, thereby the proteins were analyzed. […] As a result, two specific spots were detected (FIG. 15-A). Therefore, the protein was extracted and degraded with trypsin, and then, the degraded proteins were analyzed by mass spectrometry.

[2] = tested on: G protein in the differentiated HL-60 cell membrane fraction; experiment: G protein activation ability (GTP hydrolysis) in cell membrane fraction; assay type: biochemical, human
Method: (4) Measurement of G Protein Activation Ability
The cells were collected by centrifuging the suspension of the differentiated HL-60 cells (1,000 rpm, 5 minutes, 4° C.). After that, the following operation was repeated three times to wash the cells: ice-cooled PBS was added to the cells; the mixture was suspended by inversion; and the mixture was centrifuged (1,000 rpm, 5 minutes, 4° C.). Then, the precipitated cells were suspended in a buffer for preparing a cell membrane fraction (20 mM Tris-HCl, 250 mM sucrose, 1.5 mM MgCl2, 3 mM benzamidine hydrochloride monohydrate, 1 μM leupeptin, 1 μM PMSF, 2 μg/ml trypsin inhibitor, pH 7.5) and a cell homogenate was prepared using nitrogen pressing-depressing type cell homogenizing apparatus (nitrogen pressure: 350 psi). After that, the resultant was ultracentrifuged (20,000 g, 4° C., 30 minutes) to remove the supernatant, and the precipitate was suspended in a membrane fraction buffer (20 mM Tris-HCl, 1 mM EDTA, 1 mM DTT, 77.5 mTIU/ml aprotinin, pH 7.5) and used as a cell membrane fraction. After dispensed, the cell membrane fraction was stored at −80° C. The activity of the G protein was quantified using the activity to hydrolyze GTP to GDP as an index. […] The mixture was centrifuged (15,000 rpm, 1 minute, 4° C.), and the radioactivity of the supernatant was measured.

T1 sequence (P11142 whole entry, canonical isoform): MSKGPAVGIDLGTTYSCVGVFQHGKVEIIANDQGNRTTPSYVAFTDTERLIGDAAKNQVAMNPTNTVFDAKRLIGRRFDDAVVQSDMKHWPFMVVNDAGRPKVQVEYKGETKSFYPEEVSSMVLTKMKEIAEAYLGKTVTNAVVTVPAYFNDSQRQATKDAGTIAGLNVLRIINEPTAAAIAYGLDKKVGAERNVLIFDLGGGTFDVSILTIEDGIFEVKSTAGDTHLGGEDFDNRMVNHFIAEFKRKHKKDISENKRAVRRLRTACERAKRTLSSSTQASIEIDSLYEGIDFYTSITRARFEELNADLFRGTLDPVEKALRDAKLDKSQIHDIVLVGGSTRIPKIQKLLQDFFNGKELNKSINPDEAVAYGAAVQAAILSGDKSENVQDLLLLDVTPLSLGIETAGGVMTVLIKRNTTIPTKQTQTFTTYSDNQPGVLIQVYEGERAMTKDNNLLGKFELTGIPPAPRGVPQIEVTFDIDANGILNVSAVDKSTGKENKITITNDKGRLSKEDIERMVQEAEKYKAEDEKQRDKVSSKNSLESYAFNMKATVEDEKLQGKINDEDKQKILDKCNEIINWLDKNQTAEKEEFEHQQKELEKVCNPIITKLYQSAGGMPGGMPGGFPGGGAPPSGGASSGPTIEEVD

Sequence: MLWNLLALHQIGQRTISTASHRH [No. 019]
- competition for binding of the protein to N-biotinyl-[Cys^0]mitocryptide-5 [1]: competitive
- activation of G protein [2]: activated
